The record followed here is a melting point compilation (Tetko et al.; mined from patent text by program, amines drawn as free bases though some values may be those of a salt).

Structures are written as SMILES. Bounds are passed on as bounds.

What is called melting point is the temperature, or range, at which the solid turns liquid. `CC1(c2ccccc2)CCC(=O)CC1`: the melting point was 48 to 50 °C.
In the case of `CCc1ccccc1-c1nc2c3ccccc3ccn2c1N=Cc1ccc(C)cc1` it was 158 to 160 °C; in that of `COC(=O)c1ccc(OCCNC(=O)C2Cc3ccccc3N2S(=O)(=O)c2ccc(-c3cccc(C(F)(F)F)c3)cc2)c(F)c1` (stereo not drawn), 65 to 70 °C; in that of `Nc1c(F)c(N2C[C@@H]3CCCN[C@@H]3C2)c(F)c2c1c(=O)c(C(=O)O)cn2[C@@H]1C[C@@H]1F`, 145 to 149 °C.
In the case of `c1cnc2ccc(Cn3nnc4ccc(-c5ccc(N6CCCCC6)nc5)nc43)cc2c1` it was 133 to 135 °C.
In the case of `CC(=O)n1nc(-c2ccncc2)nc1-c1ccncc1` it was 156 to 158 °C.
For `COC(=O)CCCc1cc2nc(Cl)ccc2n1S(=O)(=O)c1ccc(OC)cc1`, the melting point is 96 °C.
To `O=c1[nH]c2cc(N3CCCC3)c(F)cc2c(=O)n1OCc1ccccc1` belongs greater than 250 °C; to `CCCCc1ccc2nc(Cl)c(S(N)(=O)=O)n2n1`, 166 °C; to `Cc1ccc(C)c(-c2ccc(S(=O)(=O)N3c4ccccc4CC3C(=O)NCCOc3ccc(CC(=O)O)cc3)cc2)c1` (stereo not drawn), 81 to 84 °C.
`COCCNc1ncc(-c2cnc3[nH]c(=O)n(CC4CCCCC4)c3n2)cn1`: the melting point is greater than 250 °C.
Take `CP(C)(=O)C(O)C(=O)OCC(=O)c1ccccc1` (stereo not drawn): the melting point is 147 °C.
To `CCOC(=O)c1[nH]c2cc(Br)c(Cl)cc2c1-c1ccccc1F` belongs 193 to 194 °C; to `COC(=O)CS(=O)(=O)Nc1ccc(F)cc1C(F)(F)F`, 84 to 86 °C.
In the case of `NC(=O)Cc1ccc2[nH]cc(CCN3C(=O)c4ccccc4C3=O)c2c1` it was 191 to 193 °C.
In the case of `Nc1nc(NC2CCCC2)c2ncn(C3C=CC(CO)C3)c2n1` (stereo not drawn) it was 143 to 146 °C.
In turn, `COC(=O)c1cccc(-c2nnc(-c3ccc(N4CCOCC4)cc3)o2)c1` returned a melting point of 150 to 151 °C.
To `N#Cc1ccc(-c2ccc(OC(F)(F)F)c(CNC3CCN(C(=O)CO)CC3c3ccccc3)c2)c(F)c1` (stereo not drawn) belongs 132 to 134 °C; to `CNC(=O)c1ccccc1Nc1nc(Nc2ccc3c(c2)COCCN3C)ncc1Cl`, 216 to 217 °C.
In the case of `Cc1ccc(-c2c(-c3ccc(S(C)(=O)=O)cc3)cnn(CC(F)(F)F)c2=O)cc1` it was 154 to 156 °C; in that of `COC(=O)[C@H](Cc1c[nH]cn1)NC(=O)C(CCCCc1ccccc1)Cc1cccc2ccccc12` (stereo partly drawn), 45 to 47 °C.
To `O=C(O)c1ccc(S(=O)(=O)n2cccc2)s1` belongs 191 to 194 °C; to `CCCC(=O)c1c[nH]c2c(COC(=O)c3ccccc3)cccc2c1=O`, 115 to 117 °C.
As for `CS(=O)(=O)Nc1ccc(-c2ccc(C(=O)NCCCCN3CCC(c4ccc5c(c4OCCO)CCCC5)CC3)cc2)cc1`, the melting point came to 216 °C.
In the case of `COC(=O)C1=C(C)NC(C)=C(c2nc(-c3ccc(CN(C)Cc4ccccc4)cc3)no2)C1c1cccc([N+](=O)[O-])c1` (stereo not drawn) it was 192 to 193 °C.
In the case of `CCCc1cn(C(C)(C)C(=O)N(C)C)nc1-c1ccccc1Cl` it was 64 to 66 °C; in that of `CSc1nn2c(N)cc(C3CC3)nc2c1S(=O)(=O)c1ccccc1`, greater than 230 °C.
In the case of `CCOC(=O)c1cnc(Nc2cccc(OC)c2)[nH]c1=O` it was 233 to 234 °C; in that of `COc1ccc(C2(c3ccc(OC)cc3)C(Cl)(Cl)C23CCCCC3)cc1`, 121 to 122 °C; in that of `CN1CCC(=C2c3ccccc3CCn3cc(-c4ccccc4)nc32)CC1`, 172 °C.
The molecule `Cc1ccc(S(=O)(=O)Nc2ccccc2)cc1` yielded a melting point of 96 to 98 °C.
In the case of `O=C(c1cc2cc(O)ccc2[nH]1)C12CC3CC(CC(C3)C1)C2` it was 197 to 199 °C; in that of `Cc1cc2c(s1)C(C(=O)O)CC2=O` (stereo not drawn), 137 to 139 °C.
